Patent US8071625B2, “Certain chemical entities, compositions, and methods” (Cytokinetics, Inc., priority 2006, dated 2011)

Biological target: T1, crosslinked smooth muscle actomyosin (chicken gizzard smooth muscle myosin subfragment-1 crosslinked to cardiac or skeletal actin) (Gallus gallus, UniProt P10587)
T1 construct: chicken gizzard smooth muscle myosin subfragment-1; from tissue; host or cells: chicken gizzard
Assay: Lead optimization pyruvate kinase/horseradish peroxidase/pyruvate oxidase-coupled ATPase assay (compound dose response)
Type: biochemical
Conditions: read-out: IC50 Arithmetic Mean
Method: Screening assays were performed using a pyruvate kinase and lactate dehydrogenase-coupled ATPase assay containing the following reagents: Potassium PIPES (50 mM), MgCl2 (3 mM), KCl (100 mM), ATP (0.15 mM), DTT (1 mM), BSA (0.1 mg/ml), NADH (0.5 mM), PEP (1.5 mM), pyruvate kinase (4 U/ml), lactate dehydrogenase (8 U/ml), and antifoam (50 ppm) (concentrations expressed are final assay concentrations). The pH was adjusted to 6.80 at 22° C. by addition of potassium hydroxide. Lead optimization assays were performed with a more sensitive pyruvate kinase/horseradish peroxidase/pyruvate oxidase-coupled ATPase assay containing the following reagents: Potassium PIPES (12 mM), MgCl2 (2 mM), KCl (100 mM), ATP (0.15 mM), BSA (0.05 mg/ml), potassium phosphate (2 mM), amplex red (0.1 mM), PEP (0.1 mM), pyruvate kinase (4 U/ml), horseradish peroxidase (0.5 U/ml), pyruvate oxidase (0.5 U/ml), and antifoam (50 ppm) (concentrations expressed are final assay concentrations). The pH was adjusted to 7.00 at 22° C. by addition of potassium hydroxide.
The protein components specific to this assay are chicken gizzard smooth muscle myosin subfragment-1 that has been chemically crosslinked to either cardiac or skeletal actin using an excess of 1-Ethyl-3-[3-dimethylaminopropyl]carbodiimide hydrochloride and N-hydroxysuccinimide. The exact concentration of the crosslinked smooth muscle myosin in the assay is determined empirically, by titration to achieve a desired rate of ATP hydrolysis. The concentration varies between protein preparations due to variations in the fraction of active molecules in each preparation.
Compound dose response assays are performed by first preparing a dilution series of test compound, each with an assay mixture containing potassium PIPES, MgCl2, KCl, ATP, BSA, potassium phosphate, amplex red, PEP, crosslinked smooth muscle actomyosin (subfragment-1), antifoam, and water. The assay is started by adding an equal volume of solution containing potassium Pipes, MgCl2, KCl, BSA, potassium phosphate, pyruvate kinase, horseradish peroxidase, pyruvate oxidase, antifoam, and water. ATP hydrolysis is monitored by measuring the fluorescence of amplex red (excitation at 480 nm, emission at 615 nm). The resulting dose response curve is fit by the 4 parameter equation y=Bottom+((Top-Bottom)/(1+((IC50/X)^Hill))). The IC50 is defined as the concentration at which ATPase activity is midway between the top and bottom of the dose response curve.

| Molecule | IC50 [nM] |
| --- | --- |
| CCc1ccc(NC(=O)OC[C@H](C)N(CC(=O)OC(C)(C)C)C(=O)NCc2ccccc2Cl)cc1 [tert-butyl 2-(N-{(1S)-2-[N-(4-ethylphenyl)carbamoyloxy]-isopropyl}{[(2-chlorophenyl)methyl]amino}carbonylamino)acetate] | 18500 |
| CCc1ccc(NC(=O)OCC2(C(=O)NCc3cccc(Cl)c3Cl)CCN(C(=O)CNC(=O)OC(C)(C)C)CC2)cc1 [[(4-{N-[(2,3-dichlorophenyl)methyl]carbamoyl}-1-{2-[(tert-butoxy)carbonylamino]acetyl}(4-piperidyl))methoxy]-N-(4-ethylphenyl)carboxamide] | 313 |
| (tert-butoxy)-N-[2-(3-{N-[(2-chlorophenyl)methyl]carbamoyl}-3-{[N-(4-ethylphenyl)carbamoyloxy]methyl}piperidyl)-2-oxoethyl]carboxamide | 1430 |
| tert-butyl 4-[(4-{N-[(2-chlorophenyl)methyl]carbamoyl}-4-{[N-(4-ethylphenyl)carbamoyloxy]methyl}piperidyl)carbonyl]piperidinecarboxylate | 3550 |
| CC(O)c1ccc(NC(=O)OCC2(C(=O)NCc3ccccc3Cl)CCOCC2)cc1 (centres unmarked) [N-[(2-chlorophenyl)methyl][4-({N-[4-(hydroxyethyl)phenyl]carbamoyloxy}methyl)(2H-3,4,5,6-tetrahydropyran-4-yl)]carboxamide] | 5230 |
| CCc1ccc(NC(=O)OCC2(C(=O)NCc3ccccc3)CCN(C(=O)CNC(=O)OC(C)(C)C)CC2)cc1 [(tert-butoxy)-N-[2-(4-{[N-(4-ethylphenyl)carbamoyloxy]methyl}-4-[N-benzylcarbamoyl]piperidyl)-2-oxoethyl]carboxamide] | 11100 |
| CCc1ccc(NC(=O)OCCN(CCCN)C(=O)NCc2ccccc2Cl)cc1 [N-(3-aminopropyl){[(2-chlorophenyl)methyl]amino}-N-{2-[N-(4-ethylphenyl)carbamoyloxy]ethyl}carboxamide] | 2540 |
| CCc1ccc(NC(=O)OCC2(C(=O)NCc3ccccc3Cl)CC2)cc1 [N-[(2-chlorophenyl)methyl]({[N-(4-ethylphenyl)carbamoyloxy]methyl}cyclopropyl)carboxamide] | 3050 |
| CCc1ccc(NC(=O)OCC2(C(=O)NCc3ccccc3Cl)CCN(C(=O)CCCNC(=O)OC(C)(C)C)CC2)cc1 [(tert-butoxy)-N-[4-(4-{N-[(2-chlorophenyl)methyl]carbamoyl}-4-{[N-(4-ethylphenyl)carbamoyloxy]methyl}piperidyl)-4-oxobutyl]carboxamide] | 481 |
| CCc1ccc(NC(=O)N(CCNC(=O)OC(C)(C)C)CC2(C(=O)NCc3ccccc3Cl)CCN(C(=O)CNC(=O)OC(C)(C)C)CC2)cc1 [(tert-butoxy)-N-(2-{N-[(1-{2-[(tert-butoxy)carbonylamino]acetyl}-4-{N-[(2-chlorophenyl)methyl]carbamoyl}(4-piperidyl))methyl][(4-ethylphenyl)amino]carbonylamino}ethyl)carboxamide] | 19500 |
| CCc1ccc(NC(=O)OCC2(C(=O)NCc3ccccc3)CCN(C(=O)CN)CC2)cc1 [(1-(2-aminoacetyl)-4-{[N-(4-ethylphenyl)carbamoyloxy]methyl}(4-piperidyl))-N-benzylcarboxamide] | 8110 |
| CCc1ccc(NC(=O)OCC2(CC(=O)NCc3ccccc3Cl)CCN(C(=O)CN)CC2)cc1 [2-(1-(2-aminoacetyl)-4-{[N-(4-ethylphenyl)carbamoyloxy]methyl}(4-piperidyl))-N-[(2-chlorophenyl)methyl]acetamide] | 3740 |
| CC(C)(C)OC(=O)NCC(=O)N1CCC(COC(=O)Nc2ccc(C(F)(F)F)cc2)(C(=O)NCc2cccc(Cl)c2F)CC1 [[(1-{2-[(tert-butoxy)carbonylamino]acetyl}-4-{N-[(3-chloro-2-fluorophenyl)methyl]carbamoyl}(4-piperidyl))methoxy]-N-[4-(trifluoromethyl)phenyl]carboxamide] | 6560 |

The next lines start with the values.

| IC50 [nM] | Molecule |
| --- | --- |
| 1410 | CN(CCOC(=O)Nc1ccc2ncccc2c1)C(=O)NCc1ccccc1Cl [{[(2-chlorophenyl)methyl]amino}-N-methyl-N-[2-(N-(6-quinolyl)carbamoyloxy)ethyl]carboxamide] |
| 1120 | methyl (3S)-3-amino-4-(4-{N-[(2-chlorophenyl)methyl]carbamoyl}-4-{[N-(4-ethylphenyl)carbamoyloxy]methyl}piperidyl)-4-oxobutanoate |
| 606 | CCc1ccc(NC(=O)OCC2(C(=O)NCc3ccccc3Cl)CCN(C(=O)CCOC)CC2)cc1 [N-[(2-chlorophenyl)methyl](4-{[N-(4-ethylphenyl)carbamoyloxy]methyl}-1-(3-methoxypropanoyl)(4-piperidyl))carboxamide] |
| 175 | CCc1ccc(NC(=O)OCC2(C(=O)NCc3ccccc3Cl)CCN(C(=O)CN)CC2)cc1 [(1-(2-aminoacetyl)-4-{[N-(4-ethylphenyl)carbamoyloxy]methyl}(4-piperidyl))-N-[(2-chlorophenyl)methyl]carboxamide] |
| 361 | O=C(Nc1ccc2c(c1)CCC2)OCC1(C(=O)NCc2ccccc2Cl)CCOCC1 [N-[(2-chlorophenyl)methyl]{4-[(N-indan-5-ylcarbamoyloxy)methyl](2H-3,4,5,6-tetrahydropyran-4-yl)}carboxamide] |
| 234 | CCc1ccc(NC(=O)OC[C@@H]2C[C@@H](NC(=O)CN)CN2C(=O)NCc2ccccc2Cl)cc1 [N-((5S,3R)-1-{N-[(2-chlorophenyl)methyl]carbamoyl}-5-{[N-(4-ethylphenyl)carbamoyloxy]methyl}pyrrolidin-3-yl)-2-aminoacetamide] |
| 158 | CCc1ccc(NC(=O)OCC2(C(=O)NCc3ccc(F)cc3Cl)CCN(C(=O)CN)CC2)cc1 [[(1-(2-aminoacetyl)-4-{N-[(2-chloro-4-fluorophenyl)methyl]carbamoyl}(4-piperidyl))methoxy]-N-(4-ethylphenyl)carboxamide] |
| 474 | CCc1ccc(NC(=O)OCC2(C(=O)NCc3ccccc3Cl)CCCN(C(=O)OC)C2)cc1 (centres unmarked) [methyl 3-{N-[(2-chlorophenyl)methyl]carbamoyl}-3-{[N-(4-ethylphenyl)carbamoyloxy]methyl}piperidinecarboxylate] |
| 81 | CCc1ccc(NC(=O)OCC2(C(=O)NCc3cccc(F)c3C)CCN(C(=O)CN)CC2)cc1 [[(1-(2-aminoacetyl)-4-{N-[(3-fluoro-2-methylphenyl)methyl]carbamoyl}(4-piperidyl))methoxy]-N-(4-ethylphenyl)carboxamide] |
| 904 | CCc1ccc(NC(=O)OCC2(C(=O)NCc3ccccc3C#N)CCN(C(=O)CN)CC2)cc1 [(1-(2-aminoacetyl)-4-{[N-(4-ethylphenyl)carbamoyloxy]methyl}(4-piperidyl))-N-[(2-cyanophenyl)methyl]carboxamide] |
| 949 | CCc1ccc(NC(=O)OCC2(C(=O)NCc3ccccc3CO)CCN(C(=O)CN)CC2)cc1 [(1-(2-aminoacetyl)-4-{[N-(4-ethylphenyl)carbamoyloxy]methyl}(4-piperidyl))-N-{[2-(hydroxymethyl)phenyl]methyl}carboxamide] |
| 515 | CCc1ccc(NC(=O)OCC2(C(=O)NCc3ccccc3Cl)CCN(C(=O)C3COCCN3)CC2)cc1 (centres unmarked) [N-[(2-chlorophenyl)methyl](4-{[N-(4-ethylphenyl)carbamoyloxy]methyl}-1-(morpholin-3-ylcarbonyl)(4-piperidyl))carboxamide] |
| 896 | CCc1ccc(NC(=O)OCCN(CCNC(=O)CN)C(=O)NCc2ccccc2Cl)cc1 [2-amino-N-[2-({[(2-chlorophenyl)methyl]amino}-N-{2-[N-(4-ethylphenyl)carbamoyloxy]ethyl}carbonylamino)ethyl]acetamide] |
| 2340 | Cc1ccc(NC(=O)OCC2(C(=O)NCc3ccccc3Cl)CCOCC2)cc1C [(4-{[N-(3,4-dimethylphenyl)carbamoyloxy]methyl}(2H-3,4,5,6-tetrahydropyran-4-yl))-N-[(2-chlorophenyl)methyl]carboxamide] |
| 2440 | CCc1ccc(NC(=O)OCCC2(C(=O)NCc3ccccc3Cl)CCN(C(=O)CN)CC2)cc1 [(1-(2-aminoacetyl)-4-{2-[N-(4-ethylphenyl)carbamoyloxy]ethyl}(4-piperidyl))-N-[(2-chlorophenyl)methyl]carboxamide] |
| 284 | NCC(=O)N1CCC(COC(=O)Nc2ccc(C(F)(F)F)cc2)(C(=O)NCc2cccc(Cl)c2Cl)CC1 [[(1-(2-aminoacetyl)-4-{N-[(2,3-dichlorophenyl)methyl]carbamoyl}(4-piperidyl))methoxy]-N-[4-(trifluoromethyl)phenyl]carboxamide] |
